According to PubChem BioAssay (NCI):
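Dose response: 5 concentrations. Exposure: 48 h. Format: 96-well plates. Endpoint: linear interpolation; highest concentration if not reached. At the GI50, growth is halved. TGI is the concentration that stops growth completely.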

Key:
Assay in all cases: NCI tumour cell line growth inhibition, 48 h
T-47D breast = system: T-47D breast
SK-OV-3 ovarian = system: SK-OV-3 ovarian
MOLT-4 leukemia = system: MOLT-4 leukemia
CCRF-CEM leukemia = system: CCRF-CEM leukemia
SK-MEL-5 melanoma = system: SK-MEL-5 melanoma
SK-MEL-28 melanoma = system: SK-MEL-28 melanoma
ACHN renal = system: ACHN renal
NCI-H522 lung = system: NCI-H522 lung
OVCAR-4 ovarian = system: OVCAR-4 ovarian
U251 CNS = system: U251 CNS
NCI-H226 lung = system: NCI-H226 lung
SF-268 CNS = system: SF-268 CNS
IGROV1 ovarian = system: IGROV1 ovarian
BT-549 breast = system: BT-549 breast
OVCAR-3 ovarian = system: OVCAR-3 ovarian
HT29 colon = system: HT29 colon
UACC-257 melanoma = system: UACC-257 melanoma
PC-3 prostate = system: PC-3 prostate
M14 melanoma = system: M14 melanoma
MDA-MB-435 = system: MDA-MB-435
HOP-92 NSCLC = system: HOP-92 NSCLC
TK-10 renal = system: TK-10 renal
NCI/ADR-RES ovarian = system: NCI/ADR-RES ovarian
A549 NSCLC = system: A549 NSCLC
SN12C renal = system: SN12C renal
MDA-MB-231 breast = system: MDA-MB-231 breast
SF-539 CNS = system: SF-539 CNS
NCI-H460 lung = system: NCI-H460 lung
OVCAR-8 ovarian = system: OVCAR-8 ovarian
UACC-62 melanoma = system: UACC-62 melanoma
MCF7 breast = system: MCF7 breast
RXF 393 renal = system: RXF 393 renal
KM12 colon = system: KM12 colon
OVCAR-5 ovarian = system: OVCAR-5 ovarian
SW-620 colon = system: SW-620 colon
UO-31 renal = system: UO-31 renal
SNB-75 CNS = system: SNB-75 CNS
786-0 renal = system: 786-0 renal
K-562 leukemia = system: K-562 leukemia
MALME-3M melanoma = system: MALME-3M melanoma
SNB-19 CNS = system: SNB-19 CNS
HS 578T breast = system: HS 578T breast
NCI-H23 lung = system: NCI-H23 lung
COLO 205 colon = system: COLO 205 colon
CAKI-1 renal = system: CAKI-1 renal
SR leukemia = system: SR leukemia
EKVX NSCLC = system: EKVX NSCLC
LOX IMVI melanoma = system: LOX IMVI melanoma
SK-MEL-2 melanoma = system: SK-MEL-2 melanoma
SF-295 CNS = system: SF-295 CNS
HCT-116 colon = system: HCT-116 colon
HCC-2998 colon = system: HCC-2998 colon
A498 renal = system: A498 renal
HOP-62 NSCLC = system: HOP-62 NSCLC
RPMI-8226 leukemia = system: RPMI-8226 leukemia
HL-60(TB) leukemia = system: HL-60(TB) leukemia
DU-145 prostate = system: DU-145 prostate
HCT-15 colon = system: HCT-15 colon

CCOc1nc(-c2ccccc2)cc2c(O)c(C(=O)N/N=C/c3ccc(O)cc3O)[nH]c(=O)c12
GI50 (T-47D breast): 1.64 µM
TGI (T-47D breast): 50.1 µM
GI50 (SK-OV-3 ovarian): 1.26 µM
TGI (SK-OV-3 ovarian): > 24.7 µM
GI50 (MOLT-4 leukemia): 0.22 µM
TGI (MOLT-4 leukemia): > 94.4 µM
GI50 (CCRF-CEM leukemia): 0.357 µM
TGI (CCRF-CEM leukemia): > 23.2 µM
GI50 (SK-MEL-5 melanoma): 1.48 µM
TGI (SK-MEL-5 melanoma): > 57.6 µM
GI50 (SK-MEL-28 melanoma): 2.32 µM
TGI (SK-MEL-28 melanoma): > 100 µM
GI50 (ACHN renal): 1.79 µM
TGI (ACHN renal): > 35.5 µM
GI50 (NCI-H522 lung): 1.29 µM
TGI (NCI-H522 lung): 23.5 µM
GI50 (OVCAR-4 ovarian): 0.407 µM
TGI (OVCAR-4 ovarian): > 40.8 µM
GI50 (U251 CNS): 0.789 µM
TGI (U251 CNS): > 100 µM
GI50 (NCI-H226 lung): 1.49 µM
TGI (NCI-H226 lung): 8.15 µM
GI50 (SF-268 CNS): 0.766 µM
TGI (SF-268 CNS): 16.4 µM
GI50 (IGROV1 ovarian): 4.08 µM
TGI (IGROV1 ovarian): 59.5 µM
GI50 (BT-549 breast): 1.65 µM
TGI (BT-549 breast): > 26.3 µM
GI50 (OVCAR-3 ovarian): 0.364 µM
TGI (OVCAR-3 ovarian): 10.6 µM
GI50 (HT29 colon): 5.41 µM
TGI (HT29 colon): > 100 µM
GI50 (UACC-257 melanoma): 2.93 µM
TGI (UACC-257 melanoma): 17.3 µM
GI50 (PC-3 prostate): 5.55 µM
TGI (PC-3 prostate): > 100 µM
GI50 (M14 melanoma): 1.45 µM
TGI (M14 melanoma): 7.16 µM
GI50 (MDA-MB-435): 4.05 µM
TGI (MDA-MB-435): > 100 µM
GI50 (HOP-92 NSCLC): 4.42 µM
TGI (HOP-92 NSCLC): > 100 µM
GI50 (TK-10 renal): 6.47 µM
TGI (TK-10 renal): > 100 µM
GI50 (NCI/ADR-RES ovarian): 1.77 µM
TGI (NCI/ADR-RES ovarian): > 31.3 µM
GI50 (A549 NSCLC): 6.5 µM
TGI (A549 NSCLC): > 100 µM
GI50 (SN12C renal): 2.43 µM
TGI (SN12C renal): > 39 µM
GI50 (MDA-MB-231 breast): 4.12 µM
TGI (MDA-MB-231 breast): > 93 µM
GI50 (SF-539 CNS): 0.904 µM
TGI (SF-539 CNS): 6.06 µM
GI50 (NCI-H460 lung): 3.6 µM
TGI (NCI-H460 lung): 27.6 µM
GI50 (OVCAR-8 ovarian): 0.965 µM
TGI (OVCAR-8 ovarian): > 37.1 µM
GI50 (UACC-62 melanoma): 1.17 µM
GI50 (MCF7 breast): 2.17 µM
TGI (MCF7 breast): > 32 µM
GI50 (RXF 393 renal): 1.53 µM
TGI (RXF 393 renal): 11.9 µM
GI50 (KM12 colon): 5.73 µM
TGI (KM12 colon): > 100 µM
GI50 (OVCAR-5 ovarian): 7.06 µM
TGI (OVCAR-5 ovarian): > 100 µM
GI50 (SW-620 colon): 1.88 µM
TGI (SW-620 colon): > 100 µM
GI50 (UO-31 renal): 1.52 µM
TGI (UO-31 renal): 16 µM
GI50 (SNB-75 CNS): 3.16 µM
TGI (SNB-75 CNS): > 42 µM
GI50 (786-0 renal): 2.31 µM
TGI (786-0 renal): 8.34 µM
GI50 (K-562 leukemia): 1.62 µM
TGI (K-562 leukemia): > 100 µM
GI50 (MALME-3M melanoma): 2.86 µM
TGI (MALME-3M melanoma): > 40.5 µM
GI50 (SNB-19 CNS): 1.42 µM
TGI (SNB-19 CNS): > 46.8 µM
GI50 (HS 578T breast): 14 µM
TGI (HS 578T breast): > 100 µM
GI50 (NCI-H23 lung): 4.66 µM
TGI (NCI-H23 lung): > 82.8 µM
GI50 (COLO 205 colon): 0.751 µM
TGI (COLO 205 colon): 12.6 µM
GI50 (CAKI-1 renal): 1.91 µM
TGI (CAKI-1 renal): > 29.5 µM
TGI (SR leukemia): > 27.5 µM
GI50 (EKVX NSCLC): 2.5 µM
TGI (EKVX NSCLC): > 100 µM
GI50 (LOX IMVI melanoma): 0.686 µM
TGI (LOX IMVI melanoma): 9.11 µM
GI50 (SK-MEL-2 melanoma): 5.1 µM
TGI (SK-MEL-2 melanoma): 88.8 µM
GI50 (SF-295 CNS): 4.88 µM
TGI (SF-295 CNS): > 100 µM
GI50 (HCT-116 colon): 0.66 µM
TGI (HCT-116 colon): 17.5 µM
GI50 (HCC-2998 colon): 1.95 µM
TGI (HCC-2998 colon): > 82.3 µM
GI50 (A498 renal): 3.64 µM
TGI (A498 renal): 28.5 µM
GI50 (HOP-62 NSCLC): 1.65 µM
TGI (HOP-62 NSCLC): > 52.1 µM
GI50 (RPMI-8226 leukemia): 5.62 µM
TGI (RPMI-8226 leukemia): 43 µM
GI50 (HL-60(TB) leukemia): 1.44 µM
TGI (HL-60(TB) leukemia): 13.4 µM
GI50 (DU-145 prostate): 2.61 µM
TGI (DU-145 prostate): 25.5 µM
GI50 (HCT-15 colon): 1.5 µM
TGI (HCT-15 colon): > 100 µM
